As usually defined, the melting point is the temperature of the solid-liquid transition.

Molecules are shown by their SMILES.

Experimental findings from patent publication US11583524B2, “Inhibitors of the interaction between MDM2 and P53” (Janssen Pharmaceutica NV, priority 2007, dated 2023) are described below.

The test system of the first series is p53 in A2780 cells. The series can be described thus: p53 ELISA (preservation of p53 in A2780 cells). It is filed as cell-based, human. The following applies: Homo sapiens, lowest dose giving at least 140% of the p53 value in the control, 16 hours treatment, read-out: p53-elisa LAD. As for the experimental part:
The capacity of the compounds to preserve p53 in A2780 cells was measured with the p53 enzyme linked immunosorbent assay (ELISA). The p53 assay is a “sandwich” enzyme immunoassay employing two polyclonal antibodies. A polyclonal antibody, specific for the p53 protein, has been immobilized onto the surface of the plastic wells. Any p53 present in the sample to be assayed will bind to the capture antibody. The biotinylated detector polyclonal antibody also recognizes p53 protein, and will bind to any p53, which has been retained by the capture antibody. The detector antibody, in turn, is bound by horseradish peroxidase-conjugated streptavidin. The horseradish peroxidase catalyses the conversion of the chromogenic substrate o-phenylene diamine, the intensity of which is proportional to the amount of p53 protein bound to the plate. The coloured reaction product is quantified using a spectrophotometer. Quantitation is achieved by the construction of a standard curve using known concentrations of purified recombinant HIS tagged p53 protein (see example C.1).
A2780 cells (ATCC) were cultivated in RPMI 1640 supplemented with 10% fetal calf serum (FCS), 2 mM L-glutamine and gentamycin at 37° C. in a humidified incubator with 5% CO2.
A2780 cells were seeded at 20.000 cells per well in a 96 well plate, cultured for 24 hours and treated with compound for 16 hours at 37° C. in a humidified incubator. After incubation, the cells were washed once with phosphate-buffered saline and 30 μl, per well, low salt RIPA buffer (20 mM tris, pH7.0, 0.5 mM EDTA, 1% Nonidet P40, 0.5% DOC, 0.05% SDS, 1 mM PMSF, 1 μg/ml aprotinin and 0.5 μ/ml leupeptin) was added. Plates were placed on ice for 30 minutes to complete the lysis. p53 protein was detected in de lysates by using the sandwich ELISA, described below.
High binding polystyrene EIA/RIA 96 well plates (Costar 9018) were coated with the capture antibody pAb1801 (Abcam ab28-100) at a concentration of 1 μg/ml in coating buffer (0.1 M NaHCO3 pH8.2), 50 μl per well. The antibody was allowed to adhere overnight at 4° C. Coated plates were washed once with phosphate-buffered saline (PBS)/0.05% Tween 20 and 300 μl of blocking buffer (PBS, 1% bovine serum albumins (BSA)) was added, for an incubation period of 2 hours at room temperature. Dilutions of purified recombinant HIS tagged p53 protein, ranging from 3-200 ng/ml, were made in blocking buffer and used as standards.
Plates were washed twice with PBS/0.05% Tween 20 and blocking buffer or standards were added at 80 μl/well. To the standards, 20 μl of lysis buffer was added. The samples were added to the other wells at 20 μl lysate/well. After an overnight incubation at 4° C., plates were washed twice with PBS/0.05% Tween 20. Aliquots of 100 μl secondary polyclonal antibody p53(FL-393) (Tebubio, sc-6243) at a concentration of 1 μg/ml in blocking buffer were added to each well and allowed to adhere for 2 hours at room temperature. Plates were washed three times with PBS/0.05% Tween 20. Detection antibody anti-rabbit HRP (sc-2004, Tebubio) at 0.04 μg/ml in PBS/1% BSA was added and incubated for 1 hour at room temperature. Plates were washed three times with PBS/0.05% Tween 20 and 100 μl of substrate buffer was added (substrate buffer was prepared shortly before use by adding 1 tablet of 10 mg o-phenylene diamine (OPD) from Sigma and 125 μl 3% H2O2 to 25 ml OPD buffer: 35 mM citric acid, 66 mM Na2HPO4, pH5.6). After 5 to 10 minutes, colour reaction was stopped by adding 50 μl stop buffer (1 M H2SO4) per well. The absorbance at dual wavelengths of 490/655 nm was measured using a Biorad micro plate reader and the results were then analyzed.
For each experiment, controls (containing no drug) and a blank incubation (containing no cells or drugs) were run in parallel. The blank value was subtracted from all control and sample values. For each sample, the value of p53 (in absorbance units) was expressed as the percentage of the value for p53 present in the control. […]
For orientation: In an ELISA, binding on a coated surface is turned into a signal by an enzyme label.
Take `COc1c(Nc2ccnc3c2CCC3O)ccc(NCCc2c[nH]c3c(OC)cccc23)c1F` (stereo not shown) [Compound 49]: the minimal effective concentration stood at 1 µM.

Take `CC(=O)Nc1cc(NCCc2c[nH]c3ccccc23)c(F)cc1Nc1ccncc1` [Compound 50]: the minimal effective concentration was > 10 µM.

Turning to `OCc1cc(NCCc2c[nH]c3ccccc23)c(Br)cc1Nc1ccnc2ccccc12` [Compound 53], the minimal effective concentration is > 10 µM.

With `Cl.N#Cc1c(NCCc2c[nH]c3ccccc23)ccc(Nc2ccncc2)c1N1CCOCC1` [Compound 55], the minimal effective concentration was > 10 µM.

Another series concerns A2780 ovarian cancer cells. Kind of series: Alamar Blue cell proliferation assay, A2780. It is filed as cell-based, human. The following applies: Homo sapiens, 96 h, 4-day incubation, read-out: A2780 cell proliferation inhibition pIC50 (converted). The procedure: Cellular activity of the compounds of formula (I) was determined on A2780 tumour cells using a colorimetric assay for cell toxicity or survival (see example C.2).
The human A2780 ovarian cancer cells were a kind gift from Dr. T. C. Hamilton (Fox Chase Cancer Centre, Pennsylvania, U.S.A.). The cells were cultured in RPMI 1640 medium supplemented with 2 mM L-Glutamine, 50 μg/ml gentamicin and 10% fetal calf serum.
(§1) Resazurin was purchased from Aldrich (Prod. No. 199303). Potassium ferrocyanide, potassium ferricyanide, KH2PO4 and K2HPO4 were purchased from Sigma (Prod. Nos. P9387, P8131, P5655 and P8281, respectively).
(§2) Potassium Phosphate Buffer 0.1 M (PPB) was made as follows: 2.72 gram KH2PO4 and 13.86 gram K2HPO4 were dissolved in 500 ml milli-Q H2O, the pH was adjusted to pH 7.4 and the volume was brought to 1 litre with milli-Q H2O; the buffer was filter sterilised and stored at room temperature. Resazurin stock solution (PPB-A) was prepared fresh by dissolving 45 mg resazurin in 15 ml PBS. 30 mM potassium ferricyanide (PPB-B) was prepared by dissolving 0.987 gram potassium ferricyanide in 100 ml PPB. 30 mM potassium ferrocyanide (PPB-C) was prepared by dissolving 1.266 gram potassium ferrocyanide in 100 ml PPB.
(§3) Mixture of PPB-A, PPB-B and PPB-C was prepared by mixing equal volumes of the respective solutions. Resazurin work solution (herein termed “Alamar Blue” solution) was prepared by diluting said mixture 20×(vol/vol) in PPB and filter sterilising; the Alamar Blue solution could be kept at 4° C. for a maximum of 2 weeks.
(§4) For experiments in 384 wells plates the cells were seeded at a density of 5×10^3 cells/ml in Falcon 384-well culture plates (Life Technologies, Merelbeke, Belgium), black with clear bottom, in 45 μl culture medium. Cells were allowed to adhere to plastic for 24 hr. The tested compound was pre-diluted (1/50 in culture medium) and 5 μl pre-diluted compound was added to the wells. Following 4-day incubation, 10 μl of the Alamar Blue solution was added to each well and the cells were further incubated for 5 hrs (A2780) or 6 hrs (U87MG) at 37° C. The fluorescence intensity was measured for each well with a Fluorescence plate reader (Fluorskan, Labsystems, 540 nm excitation and 590 nm emission)
(§5) The antiproliferative activity was calculated as percentage of remaining viable cells in treated versus control (untreated cells) conditions. Within an experiment, the result for each experimental condition is the mean of 3 replicate wells. When appropriate, the experiments were repeated to establish full concentration-response curves. When appropriate, IC50-values (concentration of the drug, needed to reduce cell growth to 50% of the control) were computed using probit analysis for graded data (Finney, D. J., Probit Analyses, 2nd Ed. Chapter 10, Graded Responses, Cambridge University Press, Cambridge 1962). Herein the effects of test compounds are expressed as pIC50 (the negative log value of the IC50-value) (see Table 4).
A general note: The colour change of resazurin is a common sign of viable cells or microbes.
With `COc1c(Nc2ccnc3c2CCC3O)ccc(NCCc2c[nH]c3c(OC)cccc23)c1F` (stereo not shown) [Compound 49], the IC50 was 0.501 µM.

Take `CC(=O)Nc1cc(NCCc2c[nH]c3ccccc23)c(F)cc1Nc1ccncc1` [Compound 50]: the IC50 is > 10 µM.

Regarding `OCc1cc(NCCc2c[nH]c3ccccc23)c(Br)cc1Nc1ccnc2ccccc12` [Compound 53], the IC50 was > 10 µM.

On to `Cl.N#Cc1c(NCCc2c[nH]c3ccccc23)ccc(Nc2ccncc2)c1N1CCOCC1` [Compound 55], for which the IC50 was > 10 µM.

Another series concerns U87MG glioma cells. Kind of series: Alamar Blue cell proliferation assay, U87MG. Format: cell-based, human. The following applies: Homo sapiens, U-87 MG, 96 h, 4-day incubation, read-out: U87MG cell proliferation inhibition pIC50 (converted). As for the experimental part: The human U87MG glioma cells were cultured in DMEM medium supplemented with 2 mM L-Glutamine, 1 mM Sodium Pyruvate, 1.5 g/L Sodium Bicarbonate, 50 μg/ml gentamicin and 10% heat inactivated fetal calf serum. (U87MG cells are human glioblastoma cells with wild type p53. In this cell line MDM2 tightly controls p53 expression).
as §1, §2, §3, §4, §5
`COc1c(Nc2ccnc3c2CCC3O)ccc(NCCc2c[nH]c3c(OC)cccc23)c1F` (stereo not shown) [Compound 49]: the IC50 is 0.646 µM.

On to `CC(=O)Nc1cc(NCCc2c[nH]c3ccccc23)c(F)cc1Nc1ccncc1` [Compound 50], for which the IC50 was > 10 µM.

In the case of `OCc1cc(NCCc2c[nH]c3ccccc23)c(Br)cc1Nc1ccnc2ccccc12` [Compound 53], the IC50 is 3.98 µM.

As to `Cl.N#Cc1c(NCCc2c[nH]c3ccccc23)ccc(Nc2ccncc2)c1N1CCOCC1` [Compound 55], the IC50 is > 10 µM.

System in a further series: not given
Assay: not given
Conditions: not given
The compound `COc1c(Nc2ccnc3c2CCC3O)ccc(NCCc2c[nH]c3c(OC)cccc23)c1F` (stereo not shown) [Compound 49] came in with a melting point of 123 °C.

As for `CC(=O)Nc1cc(NCCc2c[nH]c3ccccc23)c(F)cc1Nc1ccncc1` [Compound 50], the melting point was determined as 241 °C.

For `OCc1cc(NCCc2c[nH]c3ccccc23)c(Br)cc1Nc1ccnc2ccccc12` [Compound 53], the melting point came to 192 °C.

Compound `Cl.N#Cc1c(NCCc2c[nH]c3ccccc23)ccc(Nc2ccncc2)c1N1CCOCC1` [Compound 55] had a melting point of 245 °C.
